Earlier results in US20230346899A1 (priority 2022, published 2023).

System: SARS-CoV-2
Conditions: moderate COVID-19 patients

favipiravir [FVP + SOC)]
Median time to elimination of SARS-CoV-2 confirmed by RT-PCR, days (IQR): 4.5 (4-9) days
Median time to improvement in clinical status by 2 points on the WHO-OSCI, days (IQR): 14.0 (11.5-16) days
Median time to normalization of CRP concentration (≤10 mg/L) in patient's blood, days (IQR): 14.0 (5.5-14) days
Median time to normalization of body temperature (<37° C.), days (IQR): 2.0 (1-3) days

aprotinin
Median time to elimination of SARS-CoV-2 confirmed by RT-PCR, days (IQR): 7.5 (6-9) days
Median time to improvement in clinical status by 2 points on the WHO-OSCI, days (IQR): 11.0 (6-11) days
Median time to normalization of CRP concentration (≤10 mg/L) in patient's blood, days (IQR): 6.0 (6-6) days
Median time to normalization of D-dimer concentration (<253 ng/mL) in patient's blood, days (IQR): 4.5 (3-6) days
Median time to normalization of body temperature (<37° C.), days (IQR): 3.0 (2-3) days
